Reference: US20180098977A1, “SCALABLE MICROPARTICULATE FORMULATIONS CONTAINING POLYMORPHIC NIMODIPINE FORM 2 PREPARED BY A SOLVENT EVAPORATION PROCESS” (Edge Therapeutics, Inc., priority 2016, published 2018)

Legend:
[1] = at 25° C.; cited from earlier work
[2] = system: subjects with an aneurysmal subarachnoid hemorrhage (aSAH); experiment: NEWTON Phase 1/2 study, efficacy and safety; format: in vivo, human
Text: NEWTON (Nimodipine microparticles to Enhance recovery While reducing TOxicity after subarachNoid hemorrhage) was a multicenter, randomized, controlled, open-label Phase 1/2 study evaluating the safety, tolerability and pharmacokinetics of escalating doses of a polymeric nimodipine microparticle suspended in a diluent of hyaluronic acid (EG-1962) compared to the current standard of care, oral nimodipine, in subjects with an aneurysmal subarachnoid hemorrhage (aSAH).
Fifty-four patients were randomized to receive EG-1962 and 18 patients were randomized to receive oral nimodipine.
The primary endpoint was to establish the maximum tolerated dose, which has been determined to be 800 mg. […] The secondary endpoint of characterizing the pharmacokinetics of EG-1962 was also met. The steady-state plasma concentration measured in patients treated with EG-1962 was below 30 ng/ml, the level of plasma concentration observed to cause systemic hypotension.

Structure (SMILES) | solubility in water [1] [mg 100 mL^−1] | patients who achieved a favorable outcome (scores of 6-8, Extended Glasgow Outcome Score [GOSE]) ([2]; at 90 days, pooled efficacy results) [%] | patients who experienced drug-related hypotension ([2]; human, in vivo) [%]
COCCOC(=O)C1=C(C)NC(C)=C(C(=O)OC(C)C)C1c1cccc([N+](=O)[O-])c1 (racemic) [Mod I, Nimodipine] | 0.036±0.007 |  | 
COCCOC(=O)C1=C(C)NC(C)=C(C(=O)OC(C)C)C1c1cccc([N+](=O)[O-])c1 (stereo not shown) [Mod II, Nimodipine] | 0.018±0.004 |  | 
COCCOC(=O)C1=C(C)NC(C)=C(C(=O)OC(C)C)C1c1cccc([N+](=O)[O-])c1 (stereo not shown) [nimodipine, isopropyl(2-methoxyethyl)-1,4-dihydro-2,6-dimethyl-4-(3-nitrophenyl)-3,5-pyridinedicarboxylate] |  | 28 | 17
